Experiment [1] has as its target petunia EPSP synthase with alanine for the first glycine of the conserved region (Petunia hybrida, UniProt P11043, G170A). The experiment can be described thus: Glyphosate sensitivity of EPSP synthase variant. The experiment is classed as biochemical. To be noted: relative to wild type.
In experiment [2] the target is wild type maize pre-EPSP synthase (pMON9951 product) (Zea mays, UniProt A0A1D6NVZ6). The experiment can be described thus: EPSP synthase activity of in vitro translation product. In kind it is biochemical. To be noted: 1.0 mM glyphosate. Here is the method:
(§1) To an assay mix (40 μl) containing shikimate-3-phosphate (2 mM), ^14 C-phosphoenolpyruvate (1 mM, 1.2 mCi/mmol), ammonium molybdate (0.1 mM), potassium fluoride (5 mM) in 50 mM HEPES-KOH, pH 7, was added the extract and incubated at 25° C. for 2 mins. The reaction was quenched by the addition of 50 μl of 50 μl of 90% ethanol/0.1M acetic acid, pH 4.5. 70 μl of the reaction mixture was loaded on a SynchroPak AX100 HPLC column (0.4×25 cm) and the column was eluted with 0.5M potassium phosphate, pH 5.5 at 1 ml/min. The radioactivity of the eluent was monitored using a Radiomatic Flo-One Beta Instrument. (Radiomatics, Fla.). The EPSP synthase activity was determined by measurement of the conversion of ^14 C-PEP to ^14 C-EPSP synthase, both of which are resolved under the above conditions of chromatography. The protein content of the extract was determined by the method of Bradford (Biorad Labs, Calif.). The specific activity of the extract is expressed as nanomoles of EPSP synthase formed/min/mg protein.
(§2) The linearized plasmid DNA was transcribed in vitro with T7 polymerase essentially as described by Krieg et al. (1984). The standard reaction buffer contained 40 mM Tris-HCl (pH 7.9), 6 mM MgCl2, 10 mM dithiothreitol, 2 mM spermidine, 80 U RNAsin ribuonuclease inhibitor, 0.5 mM each of ATP, GTP, CTP and UTP, in a final reaction volume of 100 μl. The final RNA pellet was resuspended in 20 μl of sterile water and stored at -80° C. A standard translation reaction contained 100 μl of nuclease-treated rabbit reticulocyte lysate, 5.7 μl of a 19-amino acid mixture (minus methionine) at 1 mM each, 5.7 μl of RNA (total RNA transcripts derived from 0.63 μg of plasmid DNA), 16 μl RNAsin (20U/μl) ribonuclease inhibitor, and 58.3 μl of [^35 S] methionine (14-15 mCi/ml). The in vitro translation products were stored frozen at -80° C.
(§3) The products of the in vitro translation were then assayed for EPSP synthase activity as described herein.

Experiment [3] deals with variant maize preenzyme product of pMON8617 (glycine to alanine and glycine to aspartate) (Zea mays, UniProt A0A1D6NVZ6, G163A/G206D). Described as above. The experiment is classed as biochemical. The method, then:
as §1, §2, §3

The test system of experiment [4] is variant soybean EPSPS (gly 104 to ala, gly 147 to asp) from pMON9953. Nature of the experiment: Glyphosate tolerance of EPSP synthase extracted from bacteria. The experiment is classed as biochemical, Glycine max. The note with it: enzyme extracted from E. coli SR481 with pMON9953. The text has this: An E. coli expression vector for wild type soybean EPSPS was constructed by engineering an NcoI site at the predicted start of the mature soybean coding sequence by the method of Kunkel (1985). This sequence was then inserted into pMON9563, replacing the coding sequence for mature petunia EPSPS resulting in pMON9904.

Here are results for one compound from US5310667A (priority 1989, dated 1994).

Chain of variant maize preenzyme product of pMON8617 (glycine to alanine and glycine to aspartate) (A0A1D6NVZ6 entry or part of it G163A/G206D): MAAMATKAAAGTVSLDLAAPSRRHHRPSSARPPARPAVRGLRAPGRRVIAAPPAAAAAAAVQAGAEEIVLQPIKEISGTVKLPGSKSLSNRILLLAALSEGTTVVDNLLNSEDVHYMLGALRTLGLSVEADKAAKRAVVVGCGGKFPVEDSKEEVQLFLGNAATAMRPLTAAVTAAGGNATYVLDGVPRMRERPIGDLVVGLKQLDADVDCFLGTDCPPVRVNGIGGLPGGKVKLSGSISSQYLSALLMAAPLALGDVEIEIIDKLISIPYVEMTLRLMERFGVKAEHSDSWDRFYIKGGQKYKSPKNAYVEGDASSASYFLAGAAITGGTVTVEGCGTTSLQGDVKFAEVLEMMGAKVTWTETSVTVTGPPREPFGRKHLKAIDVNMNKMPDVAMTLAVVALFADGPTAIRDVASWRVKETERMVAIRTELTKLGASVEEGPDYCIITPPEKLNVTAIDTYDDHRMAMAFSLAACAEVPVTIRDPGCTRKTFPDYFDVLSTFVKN
Chain of wild type maize pre-EPSP synthase (pMON9951 product) (A0A1D6NVZ6 1-506): as the sequence (A0A1D6NVZ6 entry or part of it G163A/G206D) above, with A163G, D206G counted along it
Chain of petunia EPSP synthase with alanine for the first glycine of the conserved region (P11043 73-516 G170A): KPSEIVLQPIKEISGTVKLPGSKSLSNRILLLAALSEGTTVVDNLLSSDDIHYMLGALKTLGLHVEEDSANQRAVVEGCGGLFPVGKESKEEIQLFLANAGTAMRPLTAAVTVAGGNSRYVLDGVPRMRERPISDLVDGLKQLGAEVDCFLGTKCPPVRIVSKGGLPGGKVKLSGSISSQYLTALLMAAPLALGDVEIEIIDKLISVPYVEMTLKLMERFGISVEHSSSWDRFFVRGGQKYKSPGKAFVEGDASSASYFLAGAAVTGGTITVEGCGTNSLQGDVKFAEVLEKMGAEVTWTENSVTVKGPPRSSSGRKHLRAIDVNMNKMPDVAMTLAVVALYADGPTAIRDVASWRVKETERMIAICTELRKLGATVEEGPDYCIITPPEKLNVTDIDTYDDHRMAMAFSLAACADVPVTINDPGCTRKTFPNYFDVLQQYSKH

With `O=C(O)CNCP(=O)(O)O` [glyphosate, N-phosphonomethylglycine], the “change in glyphosate sensitivity” value in experiment [1] is “no attendant changes in glyphosate sensitivity”. The “EPSP synthase activity in the presence of glyphosate” value in experiment [2] was “no activity was detected”. Further, the “inhibition of EPSP synthase activity” value is given as “only slight inhibition” in experiment [3] (1 mM glyphosate) and “greater inhibition, but still showing detectable activity” in experiment [3] (100 mM glyphosate). In experiment [4], the “glyphosate tolerance of extracted EPSP synthase” value is “glyphosate tolerant”.
